Tested on: AsPC1 tumors
Assay: Efficacy study in mice bearing subcutaneous AsPC1 tumors (tumor volume)
Format: in vivo, SWISS Nude mice
Conditions: single treatments; FOLFIRINOX (Group 2) or ^177Lu-IPN01087 20 MBq/mouse IV weekly x3 (Group 3); FIG. 2
Protocol: Example 1: Efficacy Study on Animals Induced with AsPC1 Cells
The AsPC1 cell line was isolated from a metastatic site (ascites) from a patient (Chen WH. et al., In Vitro. 1982 January; 18(1):24-34).
Tumor cells were grown as monolayer at 37° C. in a humidified atmosphere (5% C02, 95% air). The culture medium is RPMI 1640 containing glutamax supplemented with 10% heat inactivated fetal bovine serum, sodium pyruvate and hepes. For experimental use, tumor cells were detached from the culture flask using accutase and neutralized by addition of complete culture medium. The cells were counted and their viability was assessed by 0.25% trypan blue exclusion assay. Two frozen pellets of AsPC-1 tumor cells were prepared: one frozen cell pellet prepared during the in-vitro cell culture, and one frozen cell pellet prepared using the cell suspension used for tumor induction in mice.
One hundred fifty (150) healthy female SWISS Nude mice (Crl:NU(Ico)-Foxn1 nu), 7 weeks old at reception, were obtained from Charles River.
Tumors were induced by subcutaneous injection of ten million (107) AsPC-1 cells in 200 μL of RPMI 1640 medium containing matrigel (50:50, v:v, ref: 356237, BD Biosciences, France) into the right flank (in the axis of the heart) of 150 female animals. […]

^177Lu-zalsenertant tetraxetan [^177Lu-IPN01087]
AsPC-1 tumor growth, antitumor effect compared to the vehicles: produced an antitumor effect
